Data reported in patent EP0745599A2, “1-(3-Heterocyclylphenyl)-s-triazine-2,4,6-oxo or thiotrione herbicidal agents” (American Cyanamid Company, priority 1995, dated 1996).

Key:
Assay type in all cases: in vivo
Settings in all cases: rated four to five weeks after treatment
IPOMOEA SPP. = assay: Preemergence herbicidal evaluation, IPOSS (Morningglory Spp.); parameters: key to IPOSS: visual rating scale 0-9 vs control
Excerpt: (§1) Results of herbicide evaluation are expressed on a rating scale (0-9). The scale is based upon a visual observation of plant stand, vigor, malformation, size, chlorosis and overall plant appearance as compared with a control.
(§2) The preemergence herbicidal activity of the test compounds of the present invention is exemplified by the following tests in which the seeds of a variety of monocotyledonous and dicotyledonous plants are separately mixed with potting soil and planted on top of approximately one inch of soil in separate pint cups. After planting, the cups are sprayed with the selected aqueous acetone solution containing test compound in sufficient quantity to provide the equivalent of about 0.125 to 0.50 kg per hectare of test compound per cup. The treated cups are then placed on greenhouse benches, watered and cared for in accordance with conventional greenhouse procedures. From four to five weeks after treatment, the tests are terminated and each cup is examined and rated according to the rating system provided in Example 42.

[1] = system: ECHINOCHLOA CRUS-GALLI, (L) BEAU; assay: Preemergence herbicidal evaluation, ECHCG (Barnyardgrass); parameters: key to ECHCG: visual rating scale 0-9 vs control
Excerpt: as §1, §2

[2] = system: TRITICUM AESTIVUM, CV. APOLLO; assay: Preemergence herbicidal evaluation, TRZAWO (Wheat, Winter, CV. APOLLO); parameters: key to TRZAWO: visual rating scale 0-9 vs control
Excerpt: as §1, §2

[3] = system: ORYZA SATIVA, L. TEBONNET; assay: Preemergence herbicidal evaluation, ORYSAT (Rice, Tebonnet); parameters: key to ORYSAT: visual rating scale 0-9 vs control
Excerpt: as §1, §2

[4] = system: AMBROSIA ARTEMISIIFOLIA, L.; assay: Preemergence herbicidal evaluation, AMBEL (Ragweed, Common); parameters: key to AMBEL: visual rating scale 0-9 vs control
Excerpt: as §1, §2

ZEA MAYS L. = assay: Preemergence herbicidal evaluation, ZEAMX (Corn, Field); parameters: key to ZEAMX: visual rating scale 0-9 vs control
Excerpt: as §1, §2

[5] = system: SETARIA VIRIDIS, (L) BEAU; assay: Preemergence herbicidal evaluation, SETVI (Foxtail, Green); parameters: key to SETVI: visual rating scale 0-9 vs control
Excerpt: as §1, §2

CASSIA OBTUSIFOLIA, L. = assay: Preemergence herbicidal evaluation, CASOB (Sicklepod); parameters: key to CASOB: visual rating scale 0-9 vs control
Excerpt: as §1, §2

[6] = system: GLYCINE MAX(L)MERR. CV. WILLIAMS; assay: Preemergence herbicidal evaluation, GLXMAW (Soybean, Williams); parameters: key to GLXMAW: visual rating scale 0-9 vs control
Excerpt: as §1, §2

CHENOPODIUM ALBUM, L. = assay: Preemergence herbicidal evaluation, CHEAL (Lambsquarters, Common); parameters: key to CHEAL: visual rating scale 0-9 vs control
Excerpt: as §1, §2

[7] = system: ABUTILON THEOPHRASTI, MEDIC.; assay: Preemergence herbicidal evaluation, ABUTH (Velvetleaf); parameters: key to ABUTH: visual rating scale 0-9 vs control
Excerpt: as §1, §2

[8] = system: ECHINOCHLOA CRUS-GALLI, (L) BEAU; assay: Postemergence herbicidal evaluation, ECHCG (Barnyardgrass)
Method: In the tests, seedling plants are grown in jiffy flats for about two weeks. The test compounds are dispersed in 50/50 acetone/water mixtures containing 0.5% TWEEN®20, a polyoxyethylene sorbitan monolaurate surfactant of Atlas Chemical Industries, in sufficient quantities to provide the equivalent of about 0.125 kg to 0.500 kg per hectare of active compound when applied to the plants through a spray nozzle operating at 40 psi for a predetermined time. After spraying, the plants are placed on greenhouse benches and are cared for in the usual manner, commensurate with conventional greenhouse practices. From four to five weeks after treatment, the seedling plants are examined and rated according to the rating system set forth below. Where more than one test is involved for a given compound, the data are averaged.
as §1

GALIUM APARINE = assay: Preemergence herbicidal evaluation, GALAP (Galium); parameters: key to GALAP: visual rating scale 0-9 vs control
Excerpt: as §1, §2

COC(=O)Cn1c(=O)n(C)c(=O)n(-c2cc(N3C(=O)C4=C(CCCC4)C3=O)c(Cl)cc2Cl)c1=O [Compound 6, Methyl 3-[2,4-dichloro-5-(1-cyclohexene-1,2-dicarboximido)phenyl]tetrahydro-5-methyl-2,4,6-trioxo-s-triazine-1(2H)-acetate]
Herbicide rating (0-9) IPOSS (IPOMOEA SPP.; 0.125 kg/ha): 4.0
Herbicide rating (0-9) IPOSS (IPOMOEA SPP.; 0.250 kg/ha): 4.0
Herbicide rating (0-9) IPOSS (IPOMOEA SPP.; 0.500 kg/ha): 4.0
Herbicide rating (0-9) ECHCG ([1]; 0.125 kg/ha): 0.0
Herbicide rating (0-9) ECHCG ([1]; 0.250 kg/ha): 0.0
Herbicide rating (0-9) ECHCG ([1]; 0.500 kg/ha): 0.0
Herbicide rating (0-9) TRZAWO ([2]; 0.125 kg/ha): 2.0
Herbicide rating (0-9) TRZAWO ([2]; 0.250 kg/ha): 2.0
Herbicide rating (0-9) TRZAWO ([2]; 0.500 kg/ha): 2.0
Herbicide rating (0-9) ORYSAT ([3]; 0.125 kg/ha): 4.0
Herbicide rating (0-9) ORYSAT ([3]; 0.250 kg/ha): 4.0
Herbicide rating (0-9) ORYSAT ([3]; 0.500 kg/ha): 4.0

Cn1c(=O)n(CC(=O)OC(C)(C)C)c(=O)n(-c2cc(N3C(=O)C4=C(CCCC4)C3=O)c(Cl)cc2Cl)c1=O [Compound 7, Tert-butyl 3-[2,4-dichloro-5-(1-cyclohexene-1,2-dicarboximido)phenyl]tetrahydro-5-methyl-2,4,6-trioxo-s-triazine-1(2H)-acetate]
Herbicide rating (0-9) AMBEL ([4]; 0.125 kg/ha): 0.0
Herbicide rating (0-9) AMBEL ([4]; 0.250 kg/ha): 0.0
Herbicide rating (0-9) ZEAMX (ZEA MAYS L.; 0.125 kg/ha): 0.0
Herbicide rating (0-9) ZEAMX (ZEA MAYS L.; 0.250 kg/ha): 0.0
Herbicide rating (0-9) ZEAMX (ZEA MAYS L.; 0.500 kg/ha): 0.0
Herbicide rating (0-9) IPOSS (IPOMOEA SPP.; 0.125 kg/ha): 0.0
Herbicide rating (0-9) IPOSS (IPOMOEA SPP.; 0.250 kg/ha): 0.0
Herbicide rating (0-9) IPOSS (IPOMOEA SPP.; 0.500 kg/ha): 0.0
Herbicide rating (0-9) SETVI ([5]; 0.125 kg/ha): 0.0
Herbicide rating (0-9) SETVI ([5]; 0.250 kg/ha): 0.0
Herbicide rating (0-9) SETVI ([5]; 0.500 kg/ha): 0.0
Herbicide rating (0-9) ECHCG ([1]; 0.125 kg/ha): 0.0
Herbicide rating (0-9) ECHCG ([1]; 0.250 kg/ha): 0.0
Herbicide rating (0-9) ECHCG ([1]; 0.500 kg/ha): 0.0
Herbicide rating (0-9) CASOB (CASSIA OBTUSIFOLIA, L.; 0.125 kg/ha): 0.0
Herbicide rating (0-9) CASOB (CASSIA OBTUSIFOLIA, L.; 0.250 kg/ha): 0.0
Herbicide rating (0-9) CASOB (CASSIA OBTUSIFOLIA, L.; 0.500 kg/ha): 0.0
Herbicide rating (0-9) GLXMAW ([6]; 0.125 kg/ha): 0.0
Herbicide rating (0-9) GLXMAW ([6]; 0.250 kg/ha): 0.0
Herbicide rating (0-9) GLXMAW ([6]; 0.500 kg/ha): 0.0

C=CCn1c(=O)n(C)c(=O)n(-c2cc(N3C(=O)C4=C(CCCC4)C3=O)c(F)cc2Cl)c1=O [Compound 17, N-[5-(3-Allylhexahydro-5-methyl-2,4,6-trioxo-s-triazin-1-yl)-4-chloro-2-fluoro-phenyl]-1-cyclohexene-1,2-dicarboximide]
AMBEL ([4]; Rate 0.125 kg/ha): 0.0
AMBEL ([4]; Rate 0.250 kg/ha): 0.0
AMBEL ([4]; Rate 0.500 kg/ha): 2.0
ZEAMX (ZEA MAYS L.; Rate 0.125 kg/ha): 0.0
ZEAMX (ZEA MAYS L.; Rate 0.250 kg/ha): 0.0
ZEAMX (ZEA MAYS L.; Rate 0.500 kg/ha): 3.0
CHEAL (CHENOPODIUM ALBUM, L.; Rate 0.125 kg/ha): 6.0
CHEAL (CHENOPODIUM ALBUM, L.; Rate 0.250 kg/ha): 9.0
CHEAL (CHENOPODIUM ALBUM, L.; Rate 0.500 kg/ha): 9.0
ABUTH ([7]; Rate 0.125 kg/ha): 0.0
ABUTH ([7]; Rate 0.250 kg/ha): 3.0
ABUTH ([7]; Rate 0.500 kg/ha): 9.0
IPOSS (IPOMOEA SPP.; Rate 0.125 kg/ha): 0.0
IPOSS (IPOMOEA SPP.; Rate 0.250 kg/ha): 0.0
IPOSS (IPOMOEA SPP.; Rate 0.500 kg/ha): 0.0
Herbicide rating (0-9) ECHCG ([8]; 0.125 kg/ha): 0.0
Herbicide rating (0-9) ECHCG ([8]; 0.250 kg/ha): 0.0
Herbicide rating (0-9) ECHCG ([8]; 0.500 kg/ha): 0.0
SETVI ([5]; Rate 0.125 kg/ha): 0.0
SETVI ([5]; Rate 0.250 kg/ha): 0.0
SETVI ([5]; Rate 0.500 kg/ha): 3.0
GALAP (GALIUM APARINE; Rate 0.125 kg/ha): 0.0
GALAP (GALIUM APARINE; Rate 0.250 kg/ha): 7.0
GALAP (GALIUM APARINE; Rate 0.500 kg/ha): 4.0
ECHCG ([1]; Rate 0.125 kg/ha): 0.0
ECHCG ([1]; Rate 0.250 kg/ha): 0.0
ECHCG ([1]; Rate 0.500 kg/ha): 0.0
CASOB (CASSIA OBTUSIFOLIA, L.; Rate 0.125 kg/ha): 0.0
CASOB (CASSIA OBTUSIFOLIA, L.; Rate 0.250 kg/ha): 0.0
CASOB (CASSIA OBTUSIFOLIA, L.; Rate 0.500 kg/ha): 0.0
GLXMAW ([6]; Rate 0.125 kg/ha): 0.0
GLXMAW ([6]; Rate 0.250 kg/ha): 0.0
GLXMAW ([6]; Rate 0.500 kg/ha): 0.0
TRZAWO ([2]; Rate 0.125 kg/ha): 0.0
TRZAWO ([2]; Rate 0.250 kg/ha): 0.0
TRZAWO ([2]; Rate 0.500 kg/ha): 0.0
ORYSAT ([3]; Rate 0.125 kg/ha): 0.0
ORYSAT ([3]; Rate 0.250 kg/ha): 0.0
ORYSAT ([3]; Rate 0.500 kg/ha): 2.0

C=CCn1c(=O)[nH]c(=O)n(-c2cc(N3C(=O)C4=C(CCCC4)C3=O)c(F)cc2Cl)c1=O [Compound 18, N-[5-(3-Allylhexahydro-2,4,6-trioxo-s-triazin-1-yl)-4-chloro-2-fluorophenyl]-1-cyclohexene-1,2-dicarboximide]
AMBEL ([4]; Rate 0.125 kg/ha): 0.0
AMBEL ([4]; Rate 0.250 kg/ha): 0.0
AMBEL ([4]; Rate 0.500 kg/ha): 0.0
ZEAMX (ZEA MAYS L.; Rate 0.125 kg/ha): 0.0
ZEAMX (ZEA MAYS L.; Rate 0.250 kg/ha): 0.0
ZEAMX (ZEA MAYS L.; Rate 0.500 kg/ha): 0.0
CHEAL (CHENOPODIUM ALBUM, L.; Rate 0.125 kg/ha): 0.0
CHEAL (CHENOPODIUM ALBUM, L.; Rate 0.250 kg/ha): 5.0
CHEAL (CHENOPODIUM ALBUM, L.; Rate 0.500 kg/ha): 7.0
ABUTH ([7]; Rate 0.125 kg/ha): 0.0
ABUTH ([7]; Rate 0.250 kg/ha): 0.0
ABUTH ([7]; Rate 0.500 kg/ha): 0.0
IPOSS (IPOMOEA SPP.; Rate 0.125 kg/ha): 0.0
IPOSS (IPOMOEA SPP.; Rate 0.250 kg/ha): 0.0
IPOSS (IPOMOEA SPP.; Rate 0.500 kg/ha): 4.0
SETVI ([5]; Rate 0.125 kg/ha): 0.0
SETVI ([5]; Rate 0.250 kg/ha): 0.0
SETVI ([5]; Rate 0.500 kg/ha): 0.0
GALAP (GALIUM APARINE; Rate 0.125 kg/ha): 0.0
GALAP (GALIUM APARINE; Rate 0.250 kg/ha): 0.0
GALAP (GALIUM APARINE; Rate 0.500 kg/ha): 4.0
ECHCG ([1]; Rate 0.125 kg/ha): 0.0
ECHCG ([1]; Rate 0.250 kg/ha): 0.0
ECHCG ([1]; Rate 0.500 kg/ha): 0.0
CASOB (CASSIA OBTUSIFOLIA, L.; Rate 0.125 kg/ha): 0.0
CASOB (CASSIA OBTUSIFOLIA, L.; Rate 0.250 kg/ha): 0.0
CASOB (CASSIA OBTUSIFOLIA, L.; Rate 0.500 kg/ha): 0.0
GLXMAW ([6]; Rate 0.125 kg/ha): 0.0
GLXMAW ([6]; Rate 0.250 kg/ha): 0.0
GLXMAW ([6]; Rate 0.500 kg/ha): 0.0
TRZAWO ([2]; Rate 0.125 kg/ha): 0.0
TRZAWO ([2]; Rate 0.250 kg/ha): 0.0
TRZAWO ([2]; Rate 0.500 kg/ha): 0.0
ORYSAT ([3]; Rate 0.125 kg/ha): 0.0
ORYSAT ([3]; Rate 0.250 kg/ha): 0.0
ORYSAT ([3]; Rate 0.500 kg/ha): 0.0
